Several values for one entry are separate records, joined by “and”; a condition that tells them apart may be missing. Equal values may be shown once.
What was measured:
[1] = tested on: MPTP induced cell death in the SN; assay: Parkinson's disease in vivo: MPTP model; design: species or system mouse; conditions: MPTP mice; for Behaviour Pole Test, % (SSV = 0%) / Behaviour Pole Test, value ± SD: 30 mg/kg; for SN cell counts % of SSV / SN cell counts (cells +/− SD): test drug 30 mg/kg daily by oral gavage, several experiments
Text: Parkinson's Disease In Vivo Technique: MPTP
MPTP (1-methyl 4-phenyl 1,2,3,6-tetrahydropyridine) is a chemical that is related to the opioid analgesic drugs. MPTP causes Parkinsonian side-effects. This occurs when MPTP is metabolized into MPP+, which kills neurons in a part of the brain called the substantia nigra. MPP+ interferes with mitochondria metabolism which leads to cell death and causes the build up of free radicals, toxic molecules that contribute further to cell destruction. MPTP has abilities to effect neuronal death in dopaminergic cells. Such effects lead to gross depletion of dopaminergic neurons which has severe implications on cortical control of complex movements.
General Experimental Design
Determining that MPTP Causes Continued Cell Death
Control (non tg) and transgenic mice receive five intraperitoneal injections of MPTP-HCl (23 gauge needle, 20 mg\kg of free base; Sigma, St. Louis, Mo., USA) dissolved in sterile 0.9% saline at 2-h interval in 1 day. Control animals receive five intraperitoneal injections of 0.9% saline. […] 20 C57BL6, 10 control and 10 hA53T tg are used to establish the precise dose of toxin at 2 weeks. Animals are allowed to recover for 1 week, 2 weeks, 1 month, 12, months and 18 months. The animals are killed and the brains removed for histological (stereological) and biochemical analysis.
Determining Whether Test Drug Reduces MPTP Induced Cell Death
Animals are treated as described above. They are treated with test drug 2 days after MPTP injection until death. Test drug is given by oral gavage at a daily dosage of 30 mg/kg. The time of killing the animals is dependant on the analysis of Experiment 1, normally one month or less.
Drugs are administered by oral gavage, at a daily dosage of 30 mg/kg.
Mice are assessed at prior to killing the mice for histological analysis.
Motor coordination and strength are assessed using the rotarod. The rotarod consists of a plastic rotating rod of 3.6 cm axial diameter partitioned by metal disks into five sections to allow the testing of multiple mice simultaneously. Mice are trained on two sessions where the rotation speed is ramped from 0-30 rpm over 5 min and one training session where rotation is a constant 16 rpm for 5 min. Within two days of training, animals are formally assessed on the rotarod rotating at 16 rpm for a maximum of 3 min: the time to fall on this single test is the recorded data point.
The pole is a 700 mm long, 5 mm diameter, wooden rod. The rod is supported at its base and held vertical. The total walking distance for the mice is 550 mm. The time taken for the mouse to descend the pole is measured with a maximum time of 120 s. If a mouse falls, the time is scored as 120 s.

M17 = assay: Cytotox (% viable), cells marked M17; assay type: cell-based, human; conditions: repeat values given
[2] = tested on: generation of hydrogen peroxide (H2O2) by iron; assay: H2O2 Inhibition Assay; assay type: biochemical
Description: Assay 1. H2O2 Inhibition Assay.
(§1) This fluoresence assay evaluates the ability of a test compound to inhibit the generation of hydrogen peroxide (H2O2) by iron in the presence of a reducing substrate such as ascorbic acid. In the assay, iron in the form of FeCl3 or copper is allowed to react with ascorbic acid by incubating for 1 hr at 37° C. in the presence of the fluorescing compound DCF and horseradish peroxidase. H2O2 generated by the system is assessed by measuring the specific fluorescence profile at the excitation and emission wavelengths of 485 and 530 nm respectively, in the presence of increasing concentrations of test compound. Test compounds are ranked according to their capacity to inhibit H2O2 generated by the system where lower values reflect greater ability to inhibit H2O2 production.

Fe-DA = assay: H2O2 assay, Fe-DA (% cf. Fe 0.4 μM/DA 50 μM); assay type: biochemical
Description: as §1

[3] = tested on: M17 human neuroblastoma cells; assay: Metal Uptake Assay (metal transport); assay type: cell-based; conditions: 10 μM Cu + 10 μM compound, 5 hours
Description: Assay 3. Metal Uptake Assay
M17 human neuroblastoma cells are plated out on 6 well plates and left overnight. Enough cells are added to give approximately 70% confluent the following day of the experiment. Test compounds are added to media and mixed with equi-molar amounts of CuCl2 solution. A=10 μM Cu+10 μM MPAC; B=10 μM Cu+10 μM MPAC.
Cells are incubated in 1 ml of media/MPAC/Cu mix for 5 hours at 37° C. At the end of the incubation the media is removed with a vacuum aspirator and 1 ml of PBS added to dislodge the cells. Cells are then put into Eppendorf tubes and pelleted. The PBS is removed and the remaining cell pellets are frozen at −20 C.
The cell pellets are prepared as follows:
Received cell pellets of similar levels in 1.5 ml microfuge tubes. Added 50 μl of concentrated Nitric Acid (Aristar, BDH) to each cell pellet and allowed them to digest over night. Heated the samples for 20 min at 90° C. to complete the digestion. The volume of each sample was reduced to ˜45 ul after digestion. Added 1 ml of the 1% Nitric Acid diluent to each sample. (referred to as the “preparation solution” samples).
Measurements were made using a Varian UltraMass ICPMS instrument under operating conditions suitable for routine multi-element analysis.
The instrument was calibrated using Blank, 10, 50 and 100 ppb of a certified multi-element ICPMS standard solution (ICP-MS—CAI2-1, Accustandard) for Fe, Cu and Zn in 1% nitric acid. Used an certified internal standard solution containing 100 ppb Yttrium (Y 89) as an internal control (ICP-MS—IS-MIX1-1, Accustandard).

Mouse Plasma Conc. = assay type: in vivo; conditions: given as 'Up to'
Neuronal cortical cells = assay: Cytotox (% viable); Primary Neuronal Cells Neurotoxicity Assay; assay type: cell-based, mouse; conditions: cell type not given, repeat values given
Description: Assay 2 (a). Primary Neuronal Cells Neurotoxicity Assays
Cortical cultures were prepared as previously described (White et al., 1998). Embryonic day 14 BL6Jx129sv mouse cortices were removed, dissected free of meninges and dissociated in 0.025% (wt/vol) trypsin. Dissociated cells were plated in 48 well culture plates at a density of 2×10^6 cells/mL in MEM with 25% (vol/vol) FCS and 5% (vol/vol) HS and incubated at 37° C., 2 hrs. Media was then replaced with Neurobasal media (Invitrogen Life Technologies) and B27 supplements (Invitrogen Life Technologies). Cultures were maintained at 37° C. in 5% CO2. Prior to experimentation, the culture medium was replaced with Neurobasal media and B27 minus antioxidants (Invitrogen Life Technologies).
Neuronal cortical cells were cultured for five days as per Assay 2 in NB media and B27 supplement.
On day six the test compounds were added to the neuronal cell cultures in NB media and B27 supplement minus antioxidants.
Test compounds were dissolved in 100% DMSO to a concentration of 2.5 mM (10 mM if excess compound was weighed out per vial—then diluted to 2.5 mM). 2.5 mM stock solution was serially diluted 1 in 10 to give working solutions of 250 uM, 25 uM, 2.5 uM. Test compounds were not added directly to cells, instead they were added to a 48 well ‘Drug Plate’ as comprised below: • Preparation of “Drug Plate”:
Well 1: 576 ul NB+B27 (no antioxidant)*+24 ul 2.5 uM test compound
Well 2: 576 ul NB+B27 (no antioxidant)+24 μl 25 uM test compound
Well 3: 576 ul NB+B27 (no antioxidant)+24 ul 250 uM test compound
Well 4: 576 ul NB+B27 (no antioxidant)+24 ul 2.5 uM test compound
Well 5: 576 ul NB+B27 (no antioxidant)+24 ul 25 uM test compound
Well 6: 576 ul NB+B27 (no antioxidant)+24 ul 250 uM test compound
Well 7: 576 ul NB+B27 (no antioxidant)+24 ul test compound diluent**
Well 8: 600 ul NB+B27 (no antioxidant)
The Drug Plate was incubated at 37° C. for 15 mins. 200 ul of each well was added in triplicate to the corresponding cell plate. The cell plate was incubated at 37° C., for 4 days, (2 compounds are tested on each plate of cells).
*NB media and B27 (no antioxidants),
**PBT diluent 10% DMSO in NB+1327 (no antioxidants)
On completion of the assay, 1/10 volume MTS was added per well of plate (ie 25 ul/250 ul). The plates were incubated at 37° C. for 2 hrs, and then absorbance was read at 560 nm.

Structure (SMILES) | IC50 [2] [µM] | Mouse Plasma Conc. (Mouse Plasma Conc.) [ng/mL] | Behaviour Pole Test, % (SSV = 0%) [1] [%] | Behaviour Pole Test, value ± SD [1] | SN cell counts % of SSV [1] [%] | SN cell counts (cells +/− SD) [1] | Cytotox (% viable at 1 uM) (M17) | Cytotox (% viable at 10 uM) (M17) | Fe-DA % cf. Fe 0.4 μM/DA 50 μM (Fe-DA) [%] | Metal transport [3] | Cytotox (% viable at 1 uM) (Neuronal cortical cells) | Cytotox (% viable at 10 uM) (Neuronal cortical cells) | Fe-DA % cf. Fe/DA (Fe-DA; 2 μM Fe) [%]
CCCn1c(CNC)nc2c(O)c(Cl)cc(Cl)c2c1=O [Compound F4095, 5,7-Dichloro-8-hydroxy-2-((methylamino)methyl)-3-propylquinazolin-4(3H)-one] |  |  | 24.25 | (2.21 ± 0.89) | 12.15 | (2436.00 ± 603.06) cells |  |  |  |  |  |  | 
CCn1c(CN2CCCCC2)nc2c(O)c(Cl)cc(Cl)c2c1=O [Compound F4483] | 0.33 | ≤ 1585.2 |  |  |  |  |  |  | 62 | Metal transport 22% | 93.4% and 105.5% | 99.7% and 72.3% | 
O=c1c2c(Cl)cc(Cl)c(O)c2nc(CN2CCOCC2)n1CC1CC1 [Compound F4384] |  |  |  |  |  |  | 116.3% and 106.4% | 86.5% and 73.0% |  | Metal transport 17% |  |  | 
CCN(CC)Cc1nc2c(O)c(Cl)cc(Cl)c2c(=O)n1C [Compound F4473] | 0.6 | ≤ 1356.2 |  |  |  |  |  |  | 62 | Metal transport 9% | 97.0% and 99.0% | 91.6% and 106.1% | 

Further compounds by falling IC50 [2], results first:

IC50 [2] [µM] | Mouse Plasma Conc. (Mouse Plasma Conc.) [ng/mL] | Structure (SMILES) | Behaviour Pole Test, % (SSV = 0%) [1] [%] | Behaviour Pole Test, value ± SD [1] | SN cell counts % of SSV [1] [%] | SN cell counts (cells +/− SD) [1] | Cytotox (% viable at 1 uM) (M17) | Cytotox (% viable at 10 uM) (M17) | Fe-DA % cf. Fe 0.4 μM/DA 50 μM (Fe-DA) [%] | Metal transport [3] | Cytotox (% viable at 1 uM) (Neuronal cortical cells) | Cytotox (% viable at 10 uM) (Neuronal cortical cells) | Fe-DA % cf. Fe/DA (Fe-DA; 2 μM Fe) [%]
1.51 |  | CCN1CCN(Cc2nc3c(O)c(Cl)cc(Cl)c3c(=O)n2CC2CC2)CC1 [Compound F4383] |  |  |  |  | 118.5% and 102.3% | 103.4% and 92.7% | 81 | Metal transport 8% |  |  | 
0.59 | ≤ 17255.9 | O=c1c2c(Cl)cc(Cl)c(O)c2nc(CN2CCCCC2)n1CC1CC1 [Compound F4391] | 9.96 | (2.63 ± 1.10) | 25.18 | (2719.11 ± 255.12) cells | 87.4% and 95.9% and 96.0% | 57.5% and 70.5% and 66.5% |  | Metal transport 34% |  |  | 97
0.33 | ≤ 3294.1 | CCN(CC)Cc1nc2c(O)c(Cl)cc(Cl)c2c(=O)n1CC [Compound F4386] |  |  |  |  | 101.8% and 99.8% and 101.4% and 107.9% | 105.2% and 91.9% and 111.7% and 106.8% | 77 | Metal transport 13% |  |  | 
0.17 |  | CC(C)Cn1c(CN(C)C)nc2c(O)c(Cl)cc(Cl)c2c1=O.Cl [Compound F4271, 5,7-Dichloro-2-((dimethylamino)methyl)-8-hydroxy-3-isobutylquinazolin-4(3H)-one] |  |  |  |  | 104.4% and 102.3% | 61.5% and 52.5% | 57 | Metal transport 27.8% |  |  | 

Reference: patent US9145375B2, “Quinazolinone compounds” (PRANA BIOTECHNOLOGY LIMITED, priority 2008, dated 2015)
